The record followed here is US20260130856A1, “LIPOSOME COMPOSITIONS FOR DELIVERY OF COMPOUNDS AND METHODS THEREOF” (NanoTech Pharma Inc., priority 2022, published 2026).

Molecules are shown by their SMILES.

The data set is described as follows: In vivo pharmacokinetics study of carfilzomib formulations, plasma carfilzomib by LC-MS. As to conditions: BALB/c nude, mouse, mice, intravenous via tail vein, 5.0 mg/kg. On the procedure:
The carfilzomib-loaded liposome was prepared based on the description in Example 17. In-vivo pharmacokinetics study was carried out in BALB/c nude mice. Carfilzomib drug solution (free drug) and liposomal carfilzomib were administered intravenously via the tail vein into the mice and the plasma concentration of carfilzomib of both formulations were monitored over time by LC-MS. The injection dose of both drug formulations was 5.0 mg/kg. After intravenous administration, blood was collected at pre-determined time points (3 mice per time point) and was placed into EDTA coated micro containers. The samples were then centrifuged to separate plasma. Plasma levels of carfilzomib were quantified by using LC-MS. PK parameters were then calculated from measured drug plasma concentrations over time.

As to `CC(C)C[C@H](NC(=O)[C@H](CCc1ccccc1)NC(=O)CN1CCOCC1)C(=O)N[C@@H](Cc1ccccc1)C(=O)N[C@@H](CC(C)C)C(=O)[C@@]1(C)CO1` [Free carfilzomib, carfilzomib], the area under the curve AUC(0-t) was 486 ng·h/mL, the clearance is 170 mL/min/kg and the half-life was 19.2 min. In addition, the Vd (read-out: Vdss) turned out to be 5.36 L/kg.

By AUC(0-t) is commonly meant exposure summed from dosing to a finite time, without extrapolation to infinity. Low readings indicate less exposure, high ones more exposure. Broadly, the clearance is the rate of elimination divided by the concentration. A low value points to a low capacity for elimination. What is called half-life is how long it takes for the measured level to halve.
